Data reported in patent US10258620B2, “Crystalline form of 5-amino-2,3-dihydrophthalazine-1,4-dione sodium salt, pharmaceutical preparations containing the same and method for the production of said form” (METRIOPHARM AG, priority 2014, dated 2019).
Where a name gives a salt, the structure may show the parent alone. Read-outs that look alike come from different tables or passages of the source.

Experiments:
TNF alpha = details: PMA-differentiated HL60 cells, pre-stimulation 1 h with 1 mmol/l, then 100 ng/mL LPS 24 h, 3 measurements, LPS control 30.08
Experimental: (§1) For the differentiation to macrophages HL60 cells were treated with phorbol 12-myristate 13-acetate (PMA) in advance. […] The secretion of TNF alpha and IL-6 was determined in the cell supernatant using ELISA testing over 3 measurements, respectively. Table 4 as well as FIGS. 7a and 7b show the respective mean value m and the standard deviation s (GraphPad Prism 5).

IL-6 = details: PMA-differentiated HL60 cells, pre-stimulation 1 h with 1 mmol/l, then 100 ng/mL LPS 24 h, 3 measurements, LPS control 42.81
Experimental: as §1

[1] = determination repeated 10 times
Experimental: After drying all forms produced were vortexed for 1 minute to let bigger agglomerates carefully disaggregate.
A sample of each of the respective solids to be determined was filled into a plastic funnel for solids (diameter of the outlet: 11 mm) with closable outlet which was mounted in a height of 20 mm above the collecting vessel. The funnel used was always filled half-full, thereby ensuring that there was always more sample material provided than necessary for filling the collecting vessel. After opening the outlet the respective solids trickled into the collecting vessel until it was filled up above the upper rim. The supernatant of the respective solids was removed with a spatula and the filled collecting vessel was weighed out with a high-resolution balance. The determination for each form was repeated 10 times and the mean value was calculated (Table 3).

[2] = from WO2011/107295A1; cited from earlier work
[3] = 30-600° C., synthetic air, heating rate 10° C./min
Experimental: The determination was carried out by means of simultaneous thermogravimetry (differential scanning calorimetry) at a Linseis L81-077 coupled with mass spectroscopy measurements with a Netzsch STA 449 C (thermobalance) with MS and FTIR coupling over 30-600° C. under synthetic air (4 N2:1 O2) and a heating rate of 10° C./min. The data were analyzed with the company software Proteus.

physchem = assay: physchem
Experimental: Determination of the maximum solubility of crystalline form III in water at RT was carried out with UV-Vis spectroscopy in an Agilent Cary 300 UV-Vis spectrometer. This process is based on a linear correlation between the concentration of a dissolved solid and the calculated absorption at a particular wavelength (Beer-Lambert law).
A stock solution of 0.502 g of form III in 2 mL H2O (demineralized) was produced. For the generating a 3-point calibration curve three solutions were produced after appropriate dilution thereof with concentrations of 0.5041 mmol/l, 0.2521 mmol/l and 0.1260 mmol/l, and their respective absorption at 347 nm was determined. […] Further, a supersaturated solution of 0.531 g of form III in 2 mL H2O (demineralized) was produced to determine the maximum concentration. 100 μL of the solution were 2000-fold diluted and the absorption at 347 nm was determined as well.

[4] = methanol or ethanol
Description: In polymorphs of crystalline solids phase transitions occur depending on the thermodynamic stability of the individual forms. […] Different transformation processes are known. […] In this respect so-called slurry experiments can provide information on the thermodynamic stability of polymorphs of a solid.
To compare the stability under the influence of solvents 50:50 (wt %) solid phase mixtures were produced of form III according to the invention and form I as well as of form III according to the invention and form II.
In each case 0.05 g of the respective solid phase mixture were suspended in 5 mL 2-propanol, methanol or ethanol, respectively. The mixture of form III and form I was stirred at RT for 3 days. The mixture of form III and form II was stirred at RT for 24 h. The suspensions were filtered under vacuum utilizing a Büchner funnel. The remaining crystalline solid was completely dried at RT. X-ray powder diffraction patterns of the resulting crystalline solids were recorded with a Bragg-Brentano diffractometer (STOE STADI P) provided with a DECTRIS MythenlK detector using mono-chromatized (Ge111-monochromator) copper emissions Cu K(α1) (wave length λ=1.54187 Å).

[5] = FIG. 8, increasing proportion of H2O
[6] = water, thermodynamic from solid

In the case of Nc1cccc2c(=O)[nH][nH]c(=O)c12 [Form I, 5-amino-2,3-dihydrophthalazine-1,4-dione sodium salt], the “TNF-alpha secretion, mean m” value (TNF alpha; sodium salt) is reported as 25.28 pg/mL, the “IL-6 secretion, mean m” value (IL-6; sodium salt) is reported as 41.15 pg/mL and the “Bulk densities (mean ± standard deviation)” value ([1]; sodium salt) is reported as 201.9 ± 3.9 kg/m^3.

For Nc1cccc2c(=O)[nH][nH]c(=O)c12 [Dihydrate, 5-amino-2,3-dihydrophthalazine-1,4-dione sodium salt dihydrate], the “solid phase transition temperature” value [2] is given as 85 °C, the “TNF-alpha secretion, mean m” value (TNF alpha; sodium salt dihydrate) is given as 26.87 pg/mL and the “IL-6 secretion, mean m” value (IL-6; sodium salt dihydrate) is given as 40.93 pg/mL. The “Bulk densities (mean ± standard deviation)” value ([1]; sodium salt dihydrate) was 72.3 ± 4.1 kg/m^3.

With Nc1cccc2c(=O)[nH][nH]c(=O)c12 [Form II, 5-amino-2,3-dihydrophthalazine-1,4-dione sodium salt] the “TNF-alpha secretion, mean m” value (TNF alpha; sodium salt) was 22.16 pg/mL, the “IL-6 secretion, mean m” value (IL-6; sodium salt) was 36.11 pg/mL and the “Bulk densities (mean ± standard deviation)” value ([1]; sodium salt) was 108.6 ± 3.0 kg/m^3.

With Nc1cccc2c(=O)[nH][nH]c(=O)c12 [Form III, 5-amino-2,3-dihydrophthalazine-1,4-dione sodium salt] the “temperature at which decomposition starts” value [3] was 391.7 °C, the “solubility in water compared with forms I and II” value (physchem; RT, forms I and II cf. WO2011/107295A1) was “less soluble than forms I and II” and the solubility (physchem; [6]) was 145 mg/mL. The solubility thermodynamic (physchem; [6]) was 730 mM, the “thermodynamic stability versus form I” value ([4]; 50:50 wt % mixture of form I and form III in 2-propanol, stirred at RT for 3 days) was “thermodynamically more stable polymorph” and the “thermodynamic stability versus form II” value ([4]; 50:50 wt % mixture of form II and form III in 2-propanol, stirred at RT for 24 h) was “thermodynamically more stable polymorph”. The “TNF-alpha secretion, mean m” value (TNF alpha; sodium salt) was 22.15 pg/mL, the “IL-6 secretion, mean m” value (IL-6; sodium salt) was 34.86 pg/mL and the “Bulk densities (mean ± standard deviation)” value ([1]; sodium salt) was 203.5 ± 6.7 kg/m^3.

In the case of Nc1cccc2c(=O)[nH][nH]c(=O)c12 [5-amino-2,3-dihydrophthalazine-1,4-dione sodium salt], the “solubility in a DMSO-H2O mixture with increasing proportion of H2O” value [5] is reported as “increases continuously”.
